The results in this text go back to US8598344B2, “CDKI pathway inhibitors and uses thereof” (Senex Biotechnology, priority 2009, dated 2013).

For one assay, the system named is C26. The assay can be described thus: Colon carcinoma cell proliferation, FACS count of live cells. The format is cell-based, murine. Particulars: 72 hrs, 2.5, 5 or 10 μM. The procedure: Inhibition of β-catenin, which is positively regulated by CDK8, was reported to inhibit proliferation of some colon carcinoma cell lines (Firestein et al., 2008). We have therefore determined the ability of compound 1 to inhibit the proliferation of several colon carcinoma cell lines, including human DLD1, HCT116, SW480 and murine C26. This analysis waqs carried out by incubating cells for 72 hrs in the presence of 0, 2.5, 5 or 10 μM compound 1, followed by FACS measurement of the number of live cells, as defined by the lack of uptake of membrane-impermeable dye propidium iodide.

A further assay has as its target T1, PKACb (Homo sapiens, UniProt P22694).
T1 construct: purchased KinomeScan, a division of Ambit Biosciences
In words: KinomeScan competition binding assay. Particulars: 10 μM compound. The procedure:
(§1) The KINOMEscan assay has been described in detail in Fabian et al., Nat. Biotechnol. 23: 329 (2005) and Karaman et al., Nat. Biotechnol. 26: 127 (2008).
(§2) The KinomeScan assay is based on a competition binding assay that quantitatively measures the ability of a compound to compete with an immobilized, ATP site directed ligand. The assay is performed by combining three components: DNA-tagged kinase; immobilized ligand; and a test compound. The ability of the test compound to compete with the immobilized ligand is measured via quantitative PCR of the DNA tag.

Another assay concerns the target T2, RIOK2 (Homo sapiens, UniProt Q9BVS4).
T2 construct: purchased KinomeScan, a division of Ambit Biosciences
In words: KinomeScan competition binding assay. Particulars: 10 μM compound. The procedure:
as §1, §2

Another assay deals with T3, JNK1 (Homo sapiens, UniProt P45983).
T3 construct: purchased KinomeScan, a division of Ambit Biosciences
T3 sequence (P45983 whole entry): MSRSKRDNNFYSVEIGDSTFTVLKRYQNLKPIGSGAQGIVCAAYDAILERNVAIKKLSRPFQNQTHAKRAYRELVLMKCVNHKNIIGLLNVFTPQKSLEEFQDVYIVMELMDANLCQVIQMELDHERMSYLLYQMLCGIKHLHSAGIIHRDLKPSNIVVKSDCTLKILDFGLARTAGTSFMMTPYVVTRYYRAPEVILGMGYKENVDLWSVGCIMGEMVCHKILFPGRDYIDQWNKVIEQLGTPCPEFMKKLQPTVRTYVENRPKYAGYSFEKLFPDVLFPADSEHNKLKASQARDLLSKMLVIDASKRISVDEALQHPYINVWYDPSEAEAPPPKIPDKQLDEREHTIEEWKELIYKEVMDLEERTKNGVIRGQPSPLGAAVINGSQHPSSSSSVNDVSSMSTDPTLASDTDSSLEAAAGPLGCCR
In words: KinomeScan competition binding assay. Particulars: 10 μM compound. The protocol: as §1, §2

The next assay has as its target T4, ROCK1 (Homo sapiens, UniProt Q13464).
T4 construct: purchased KinomeScan, a division of Ambit Biosciences
In words: KinomeScan competition binding assay. Particulars: 10 μM compound. The procedure:
as §1, §2

A further assay has as its target T5, ROCK2 (Homo sapiens, UniProt O75116).
T5 construct: purchased KinomeScan, a division of Ambit Biosciences
The assay can be described thus: KinomeScan competition binding assay. Particulars: 10 μM compound. The protocol:
as §1, §2

The next assay deals with T6, ROS1 (Homo sapiens, UniProt P08922).
T6 construct: purchased KinomeScan, a division of Ambit Biosciences
T6 sequence (P08922 28-2347): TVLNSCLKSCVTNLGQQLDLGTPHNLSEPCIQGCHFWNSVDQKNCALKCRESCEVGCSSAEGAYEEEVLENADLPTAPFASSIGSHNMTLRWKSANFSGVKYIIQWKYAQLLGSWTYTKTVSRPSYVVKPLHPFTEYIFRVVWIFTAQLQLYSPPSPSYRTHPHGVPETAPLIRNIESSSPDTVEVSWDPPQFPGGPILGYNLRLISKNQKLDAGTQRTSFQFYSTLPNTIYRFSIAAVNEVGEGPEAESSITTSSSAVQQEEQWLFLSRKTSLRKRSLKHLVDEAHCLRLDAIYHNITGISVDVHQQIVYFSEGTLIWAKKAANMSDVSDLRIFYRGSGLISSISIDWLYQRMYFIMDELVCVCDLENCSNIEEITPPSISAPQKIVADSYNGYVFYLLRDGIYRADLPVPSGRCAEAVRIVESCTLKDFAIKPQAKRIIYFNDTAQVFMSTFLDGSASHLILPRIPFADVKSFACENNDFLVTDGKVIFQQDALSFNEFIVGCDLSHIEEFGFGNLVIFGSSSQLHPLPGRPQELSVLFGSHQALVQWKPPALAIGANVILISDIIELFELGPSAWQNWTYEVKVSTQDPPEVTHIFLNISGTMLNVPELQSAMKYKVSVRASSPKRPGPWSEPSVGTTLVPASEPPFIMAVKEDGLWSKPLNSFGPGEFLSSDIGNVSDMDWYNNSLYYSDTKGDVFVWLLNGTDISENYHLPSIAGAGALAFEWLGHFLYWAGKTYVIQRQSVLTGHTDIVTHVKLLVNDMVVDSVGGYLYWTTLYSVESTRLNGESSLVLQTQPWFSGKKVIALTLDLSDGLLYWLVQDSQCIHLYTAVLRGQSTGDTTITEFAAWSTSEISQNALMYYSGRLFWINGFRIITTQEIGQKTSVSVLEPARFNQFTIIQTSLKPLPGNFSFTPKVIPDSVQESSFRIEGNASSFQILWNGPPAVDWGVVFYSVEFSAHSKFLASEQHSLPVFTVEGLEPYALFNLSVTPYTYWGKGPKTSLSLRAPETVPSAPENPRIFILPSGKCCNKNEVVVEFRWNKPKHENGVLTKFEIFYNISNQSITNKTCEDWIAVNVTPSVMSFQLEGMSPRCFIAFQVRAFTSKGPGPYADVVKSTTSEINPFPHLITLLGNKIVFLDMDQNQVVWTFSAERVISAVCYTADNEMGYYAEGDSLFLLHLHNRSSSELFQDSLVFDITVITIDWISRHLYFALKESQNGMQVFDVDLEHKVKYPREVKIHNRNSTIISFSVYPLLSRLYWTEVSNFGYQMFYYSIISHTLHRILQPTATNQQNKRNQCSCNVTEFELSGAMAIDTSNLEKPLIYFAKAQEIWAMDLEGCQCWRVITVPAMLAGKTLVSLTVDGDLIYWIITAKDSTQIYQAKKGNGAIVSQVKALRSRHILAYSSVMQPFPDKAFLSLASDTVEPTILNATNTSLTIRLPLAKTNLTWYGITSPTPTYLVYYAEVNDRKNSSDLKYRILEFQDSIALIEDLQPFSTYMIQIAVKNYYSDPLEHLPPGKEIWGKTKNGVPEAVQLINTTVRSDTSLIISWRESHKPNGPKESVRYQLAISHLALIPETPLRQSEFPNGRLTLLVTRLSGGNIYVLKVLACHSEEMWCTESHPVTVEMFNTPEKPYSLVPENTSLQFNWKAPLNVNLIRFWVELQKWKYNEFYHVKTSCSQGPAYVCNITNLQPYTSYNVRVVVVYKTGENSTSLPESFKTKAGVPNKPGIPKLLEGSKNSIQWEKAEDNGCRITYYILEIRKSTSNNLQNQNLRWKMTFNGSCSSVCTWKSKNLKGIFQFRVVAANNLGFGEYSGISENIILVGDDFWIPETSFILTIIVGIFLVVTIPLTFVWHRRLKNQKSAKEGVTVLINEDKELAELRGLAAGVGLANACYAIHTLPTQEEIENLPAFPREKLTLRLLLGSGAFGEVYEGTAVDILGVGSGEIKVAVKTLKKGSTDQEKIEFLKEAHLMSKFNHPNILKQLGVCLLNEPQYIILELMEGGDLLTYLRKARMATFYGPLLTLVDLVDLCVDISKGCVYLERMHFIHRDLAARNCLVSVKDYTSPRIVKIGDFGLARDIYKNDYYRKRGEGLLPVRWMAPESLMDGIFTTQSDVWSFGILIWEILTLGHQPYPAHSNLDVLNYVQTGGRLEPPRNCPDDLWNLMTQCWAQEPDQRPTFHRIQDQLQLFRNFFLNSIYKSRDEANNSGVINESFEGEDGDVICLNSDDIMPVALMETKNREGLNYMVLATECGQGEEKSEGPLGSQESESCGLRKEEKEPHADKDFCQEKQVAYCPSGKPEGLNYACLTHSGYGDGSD
In words: KinomeScan competition binding assay. Particulars: 10 μM compound. The protocol:
as §1, §2

The target in the next assay is T7, PIM2 (Homo sapiens, UniProt Q9P1W9).
T7 construct: purchased KinomeScan, a division of Ambit Biosciences
T7 sequence (Q9P1W9 whole entry): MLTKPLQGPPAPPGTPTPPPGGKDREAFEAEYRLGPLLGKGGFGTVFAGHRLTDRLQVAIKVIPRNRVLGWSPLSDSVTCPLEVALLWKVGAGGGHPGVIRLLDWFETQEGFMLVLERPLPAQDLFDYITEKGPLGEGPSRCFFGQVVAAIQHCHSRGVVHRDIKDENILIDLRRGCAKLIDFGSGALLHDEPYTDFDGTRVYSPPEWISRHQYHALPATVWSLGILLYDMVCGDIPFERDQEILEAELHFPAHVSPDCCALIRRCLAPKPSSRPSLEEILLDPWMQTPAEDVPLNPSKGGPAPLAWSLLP
The assay can be described thus: KinomeScan competition binding assay. Particulars: 10 μM compound. The protocol:
as §1, §2

A further assay addresses T8, ALK (Homo sapiens, UniProt Q9UM73).
T8 construct: purchased KinomeScan, a division of Ambit Biosciences
The assay can be described thus: KinomeScan competition binding assay. Particulars: 10 μM compound. The procedure: as §1, §2

Another assay deals with T9, LTK (Homo sapiens, UniProt P29376).
T9 construct: purchased KinomeScan, a division of Ambit Biosciences
The assay can be described thus: KinomeScan competition binding assay. Particulars: 10 μM compound. The procedure:
as §1, §2

For a further assay, the target named is T10, PKACa (Homo sapiens, UniProt P17612).
T10 construct: purchased KinomeScan, a division of Ambit Biosciences
In words: KinomeScan competition binding assay. Particulars: 10 μM compound. The procedure:
as §1, §2

The target in the next assay is T11, PRKG2 (Homo sapiens, UniProt Q13237).
T11 construct: purchased KinomeScan, a division of Ambit Biosciences
The assay can be described thus: KinomeScan competition binding assay. Particulars: 10 μM compound. The protocol:
as §1, §2

The target in a further assay is T12, MET (Homo sapiens, UniProt P08581).
T12 construct: purchased KinomeScan, a division of Ambit Biosciences
T12 sequence (P08581 25-1390): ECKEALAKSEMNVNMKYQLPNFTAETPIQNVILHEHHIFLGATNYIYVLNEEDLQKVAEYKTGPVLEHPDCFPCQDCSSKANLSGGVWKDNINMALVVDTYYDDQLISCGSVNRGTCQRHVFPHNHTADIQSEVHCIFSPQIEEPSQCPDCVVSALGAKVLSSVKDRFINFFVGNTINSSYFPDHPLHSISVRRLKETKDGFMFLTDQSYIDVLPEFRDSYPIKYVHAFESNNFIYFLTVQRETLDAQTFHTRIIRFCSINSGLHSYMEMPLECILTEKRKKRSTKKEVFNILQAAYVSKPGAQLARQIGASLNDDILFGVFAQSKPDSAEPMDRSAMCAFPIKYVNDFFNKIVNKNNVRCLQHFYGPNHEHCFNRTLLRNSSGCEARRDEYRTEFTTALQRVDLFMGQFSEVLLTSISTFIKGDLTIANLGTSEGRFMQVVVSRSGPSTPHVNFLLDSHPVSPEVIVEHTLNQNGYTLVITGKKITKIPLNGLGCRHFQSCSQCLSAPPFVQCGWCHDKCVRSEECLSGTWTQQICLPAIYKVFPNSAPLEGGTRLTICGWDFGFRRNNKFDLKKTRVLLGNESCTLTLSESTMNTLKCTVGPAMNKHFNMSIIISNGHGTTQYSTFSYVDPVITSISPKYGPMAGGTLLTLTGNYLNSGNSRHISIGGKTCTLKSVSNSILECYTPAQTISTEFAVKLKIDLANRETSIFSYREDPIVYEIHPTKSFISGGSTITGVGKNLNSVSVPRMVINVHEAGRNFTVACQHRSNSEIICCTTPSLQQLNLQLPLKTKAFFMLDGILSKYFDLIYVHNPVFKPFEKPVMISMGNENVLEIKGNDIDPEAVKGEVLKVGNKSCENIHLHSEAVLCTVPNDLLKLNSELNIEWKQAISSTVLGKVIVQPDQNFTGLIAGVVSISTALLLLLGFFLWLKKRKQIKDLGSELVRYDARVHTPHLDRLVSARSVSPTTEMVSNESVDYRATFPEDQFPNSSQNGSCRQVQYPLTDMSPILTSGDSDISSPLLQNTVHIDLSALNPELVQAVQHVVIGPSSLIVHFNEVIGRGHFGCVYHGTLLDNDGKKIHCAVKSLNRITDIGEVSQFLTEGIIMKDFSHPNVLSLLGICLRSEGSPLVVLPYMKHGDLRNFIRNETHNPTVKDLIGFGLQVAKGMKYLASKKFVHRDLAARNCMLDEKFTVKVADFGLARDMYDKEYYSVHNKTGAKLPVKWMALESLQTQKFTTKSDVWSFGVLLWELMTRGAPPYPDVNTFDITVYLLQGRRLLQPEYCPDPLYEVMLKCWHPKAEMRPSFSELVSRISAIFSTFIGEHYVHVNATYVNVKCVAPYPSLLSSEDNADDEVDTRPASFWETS
In words: KinomeScan competition binding assay. Particulars: 10 μM compound. The procedure:
as §1, §2

The test system of assay [1] is irradiated, senescent WI38 fibroblasts. In words: Paracrine antiapoptotic activity of irradiated, senescent WI38 fibroblasts (survival of C8 cells in low serum). The format is cell-based. Particulars: C8 cell luciferase, 0.5% serum. An excerpt: As discussed by Roninson (Cancer Lett. 179, 1-14, 2002), all the treatments known to induce the production of tumor-promoting secreted factors by cancer-associated stromal fibroblasts activate the CDKI pathway, including exposure to ionizing radiation and the induction of senescence. Since this pathway is the target of compounds according to the invention, such compounds may be the first agents to target tumor-supporting activities of cancer-associated fibroblasts. Some of the fibroblast-activating treatments include exposure to ionizing radiation and the induction of senescence through various means (Krtolica et al., Proc. Natl. Acad. Sci. USA 98, 12072, 2001). We have adopted a 96-well assay for anti-apoptotic activity that we have previously used with p21-expressing fibrosarcoma cells (Chang et al., Proc. Natl. Acad. Sci. USA 97, 4291-4296, 2000), to measure a tumor-promoting activity of normal proliferating fibroblasts and fibroblasts exposed to ionizing radiation and consequently developing the senescent phenotype. In this assay, WI38 fibroblasts are irradiated with 10 Gy using an MDS Nordion Gammacell 40 irradiator, or left unirradiated. […] On day 7, cells are lysed and the amount of luciferase activity associated with C8 cells is determined. […]

T2 sequence (Q9BVS4 whole entry): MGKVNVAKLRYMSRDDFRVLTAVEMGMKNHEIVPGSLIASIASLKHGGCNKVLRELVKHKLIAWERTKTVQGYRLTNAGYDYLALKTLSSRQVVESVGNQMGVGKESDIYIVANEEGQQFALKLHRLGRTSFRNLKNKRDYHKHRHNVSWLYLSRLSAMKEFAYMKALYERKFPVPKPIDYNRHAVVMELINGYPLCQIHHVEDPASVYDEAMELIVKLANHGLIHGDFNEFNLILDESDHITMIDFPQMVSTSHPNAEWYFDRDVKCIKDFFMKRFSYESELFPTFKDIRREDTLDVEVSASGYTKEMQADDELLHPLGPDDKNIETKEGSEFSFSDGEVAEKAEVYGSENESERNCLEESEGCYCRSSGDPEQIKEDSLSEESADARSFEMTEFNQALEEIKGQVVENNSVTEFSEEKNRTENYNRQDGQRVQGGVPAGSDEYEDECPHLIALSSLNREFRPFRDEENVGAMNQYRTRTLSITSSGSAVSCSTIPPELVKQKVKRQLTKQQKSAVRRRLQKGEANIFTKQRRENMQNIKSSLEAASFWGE

Take `N#Cc1ccc2ncnc(NCCc3ccccc3)c2c1` [compound 1]: the “growth of colon carcinoma cell line” value in the assay with C26 is recorded as “inhibited the growth”. Also, the “IC50 KB-3-1 relative to IC50 for HUVEC cells” value in the assay with KB-3-1 carcinoma cells came out at 4.3 fold. Besides, the IC50 in the assay with KB-3-1 carcinoma cells (read-out: IC50, KB-3-1 proliferation, 3-day MTT) was 44.2 µM. In addition, the “POC binding, PKACb” value at PKACb was 89 POC. Further, the “POC binding, RIOK2” value at RIOK2 stood at 23 POC. The “POC binding, JNK1” value at JNK1 worked out at 45 POC. For the same compound, on ROCK1, the “POC binding, ROCK1” value was determined as 79 POC. Besides, the “POC binding, ROCK2” value at ROCK2 came out at 89 POC. The “POC binding, ROS1” value at ROS1 amounted to 63 POC. Further, on PIM2, the “POC binding, PIM2” value was determined as 52 POC. The “POC binding, ALK” value on ALK amounted to 78 POC. In addition, the “POC binding, LTK” value on LTK was 100 POC. In addition, the “POC binding, PKACa” value on PKACa came to 82 POC. Moreover, the “POC binding, PRKG2” value at PRKG2 came to 85 POC. The “POC binding, MET” value at MET is listed as 86 POC. In assay [1], the “decrease of paracrine tumor-promoting (antiapoptotic) effect of irradiated/senescent fibroblasts” value is given as around 3 fold.
